# In PMC11653702, “Targeting the SPC25/RIOK1/MYH9 Axis to Overcome Tumor Stemness and Platinum Resistance in Epithelial Ovarian Cancer” (Advanced Science, 2024):
# Peptide text beside a SMILES is read from it.
# What was measured:
# [1] = target: T1, SPC25 (Homo sapiens, UniProt Q9HBM1); assay: Surface plasmon resonance, CBP1 binding to SPC25; details: SPR, BIAcore T200, CBP1 binding to SPC25; read-out: dissociation constant Kd
# T1 sequence (Q9HBM1 1-224): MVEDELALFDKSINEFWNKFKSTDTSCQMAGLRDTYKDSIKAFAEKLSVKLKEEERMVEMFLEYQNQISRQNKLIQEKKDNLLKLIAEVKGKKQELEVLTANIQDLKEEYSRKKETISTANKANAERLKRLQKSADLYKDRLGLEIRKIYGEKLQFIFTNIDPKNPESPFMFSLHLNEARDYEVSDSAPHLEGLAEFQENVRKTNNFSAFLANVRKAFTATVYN
# Description: Analysis of Surface Plasmon Resonance: Analysis of Surface Plasmon Resonance Binding kinetics between SPC25 and the indicated peptide-CBP1 were measured by Surface Plasmon Resonance (SPR) using a BIAcore T200 instrument (GE Healthcare, CA, USA). The dissociation constant (Kd) was calculated according to the BIA-evaluation software.
# [2] = Survival of non-tumor-bearing mice on CBP1; assay type: in vivo, BALB/c-Nude mice; parameters: key to Survival status: 0: Alive; 1: Dead; details: for Survival status / Survival time (Days after CDDP treatment): CBP1 10mg/kg; for Survival status: day 42; for Survival time (Days after CDDP treatment): alive at this day
# [3] = Serum urea, creatinine, alanine aminotransferase, aspartate aminotransferase (hepatorenal function); details: for ALT / AST / CRE (creatinine) / UREA: mice under CBP1 treatment, after 6 weeks
# Description: Subsequently, we established a BALB/c‐Nude mouse model of EOC by intraperitoneally injecting OVCAR8 cells stably expressing a luciferase gene, as described previously. On reaching a bioluminescence signal of 2 × 10^7 p/s/cm^2/sr, mice were divided into 4 treatment groups: Vehicle, CBP1, CDDP, and CDDP/CBP1 (n = 7 per group; Figure 5I).
# H) Serum urea, creatinine, alanine aminotransferase, and aspartate aminotransferase levels in normal and CBP1-treated nude mice assessed to evaluate hepatorenal function. […] Error bars represent the means ± SD of independent experiments; ns denotes not significant. In (A) and (H), two-sided Student’s t test was used.
# [4] = test system: EOC organoids (HGS-202, HGS-203, HGS-107); assay: Cell Counting Kit-8 assay in EOC patient-derived organoids; assay type: cell-based; details: EOC organoids HGS-202, HGS-203, HGS-107, compared with controls
# [5] = 10 mg/kg, i.p., once every 2 days, 6 weeks, BALB/c-Nude mice without tumors
structure (smiles),measurement,setting,value
CC[C@H](C)[C@H](NC(=O)[C@H](Cc1ccc(O)cc1)NC(=O)[C@H](C)NC(=O)CNC(=O)CNC(=O)[C@H](Cc1c[nH]c2ccccc12)NC(=O)[C@@H]1CCCN1C(=O)[C@H](CO)NC(=O)[C@@H](NC(=O)[C@H](Cc1ccc(O)cc1)NC(=O)[C@H](CC(C)C)NC(=O)[C@@H](N)Cc1c[nH]cn1)C(C)C)C(=O)N1CCC[C@H]1C(=O)N[C@@H](CCCNC(=N)N)C(=O)N[C@H](C(=O)N[C@@H](CC(C)C)C(=O)N[C@@H](CC(N)=O)C(=O)N[C@@H](CCC(=O)O)C(=O)N[C@H](C(=O)N[C@@H](CCCCN)C(=O)N[C@@H](CC(N)=O)C(=O)N[C@@H](Cc1ccc(O)cc1)C(=O)N[C@@H](CCC(=O)O)C(=O)N[C@@H](CCCNC(=N)N)C(=O)O)C(C)C)[C@@H](C)O [CBP1] (H-HLYVSPWGGAYIPRTLNEVKNYER-OH),Kd,[1],13.3 ± 2.88 µM
same,effect on survival of normal mice,[2]; [5],did not cause considerable hepatorenal toxicity or affect survival in the mice
same,Survival status,[2]; animal 1,0
same,Survival status,[2]; animal 2,0
same,Survival status,[2]; animal 3,0
same,Survival status,[2]; animal 4,0
same,Survival status,[2]; animal 5,0
same,Survival status,[2]; animal 6,0
same,Survival status,[2]; animal 7,0
same,Survival time (Days after CDDP treatment),[2]; animal 1,≥ 42 days
same,Survival time (Days after CDDP treatment),[2]; animal 2,≥ 42 days
same,Survival time (Days after CDDP treatment),[2]; animal 3,≥ 42 days
same,Survival time (Days after CDDP treatment),[2]; animal 4,≥ 42 days
same,Survival time (Days after CDDP treatment),[2]; animal 5,≥ 42 days
same,Survival time (Days after CDDP treatment),[2]; animal 6,≥ 42 days
same,Survival time (Days after CDDP treatment),[2]; animal 7,≥ 42 days
same,hepatorenal toxicity,[3]; [5],did not cause considerable hepatorenal toxicity
same,ALT,[3]; animal #1,61.601 U/L
same,AST,[3]; animal #1,95.798 U/L
same,CRE (creatinine),[3]; animal #1,0.334 mg/dL
same,UREA,[3]; animal #1,19.36 mg/dL
same,ALT,[3]; animal #2,48.846 U/L
same,AST,[3]; animal #2,169.051 U/L
same,CRE (creatinine),[3]; animal #2,0.381 mg/dL
same,UREA,[3]; animal #2,24.41 mg/dL
same,ALT,[3]; animal #3,37.083 U/L
same,AST,[3]; animal #3,149.075 U/L
same,CRE (creatinine),[3]; animal #3,0.362 mg/dL
same,UREA,[3]; animal #3,17.46 mg/dL
same,ALT,[3]; animal #4,56.136 U/L
same,AST,[3]; animal #4,97.689 U/L
same,CRE (creatinine),[3]; animal #4,0.247 mg/dL
same,UREA,[3]; animal #4,15.11 mg/dL
same,ALT,[3]; animal #5,58.209 U/L
same,AST,[3]; animal #5,124.231 U/L
same,CRE (creatinine),[3]; animal #5,0.314 mg/dL
same,UREA,[3]; animal #5,16.87 mg/dL
same,ALT,[3]; animal #6,57.394 U/L
same,AST,[3]; animal #6,120.889 U/L
same,CRE (creatinine),[3]; animal #6,0.253 mg/dL
same,UREA,[3]; animal #6,21.13 mg/dL
same,ALT,[3]; animal #7,54.623 U/L
same,AST,[3]; animal #7,133.397 U/L
same,CRE (creatinine),[3]; animal #7,0.252 mg/dL
same,UREA,[3]; animal #7,15.13 mg/dL
same,CDDP cytotoxicity in presence of CBP1,[4],markedly enhanced CDDP cytotoxicity
